Like-named read-outs stand apart in the source and are kept apart here.
What was measured:
Assay in all cases: microbe, parasite or virus in culture
Format in all cases: cell-based, Hepatitis C virus (HCV)
[1] = tested on: HCV replicon 1AY93H; details: Replicon Assay A
Outline: (§1)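 Read-out is replicon RNA per cell by real-time RT-PCR, normalised to cyclophilin mRNA amplified in the same well. Cells were exposed to compound for 3 days at 2000 cells/well in medium with 5% fetal bovine serum and 0.5% DMSO.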

[2] = tested on: HCV replicon 1A; details: Replicon Assay A
Outline: as §1

[3] = tested on: HCV replicon 2B; details: Replicon Assay A
Outline: as §1

[4] = tested on: HCV replicon 1B; details: Replicon Assay B
Protocol: In an alternate assay (“Replicon Assay B”), 1000 cells were seeded per well in a 384-well collagen coated black plate from Greiner bio-one (Cat #781946) in 5% FBS. Inhibitors of this invention were added at 24 h post-seeding, and the plates were incubated for 3 days. Cells were subsequently lysed with Qiagen lysis buffer (Cat #1062731) to extract the RNA. HCV replicon RNA level was measured by real-time PCR using the RNA-to-CT kit from Applied Biosystem (Cat #4392656) and genotype-specific primers and probes. The amplicon was located within NS5B. […] (SEQ. ID NO. 2); the probe sequence was FAM-labeled […] (SEQ. ID NO. 3).
The real-time RT-PCR reactions were run on ABI PRISM 7900HT or Viia7 Sequence Detection System using the following program: 48° C. for 30 minutes, 95° C. for 10 minutes, 40 cycles of 95° C. for 15 sec, 60° C. for 1 minutes.
Data for replicons 1A, 1AY93H and 2B were obtained using Replicon Assay A and data for replicons 1AQ30D and 1B were obtained using Replicon Assay B.

[5] = read-out: 1A Y93H IC50, replicon 1AY93H
[6] = read-out: 1A Y93H IC50, HCV replicon 1A Y93H
[7] = read-out: 2B IC50, HCV replicon 2B
[8] = Hepatitis C virus, HCV replicon 1B
[9] = HCV replicon 1A Y93H, read-out: 1A Y93H IC50
[10] = HCV replicon 2B, read-out: 2B IC50
[11] = Hepatitis C virus, HCV replicon 1A

| SMILES | IC50 [1, 5] | IC50 ([3]; read-out: 2B IC50, replicon 2B) | IC50 ([4]; Hepatitis C virus, replicon 1B) | IC50 ([2]; HCV replicon 1A) | IC50 ([2]; replicon 1A) | IC50 ([4]; HCV replicon 1B) | other results |
| --- | --- | --- | --- | --- | --- | --- | --- |
| COC(=O)N[C@H](C(=O)N1CCC[C@H]1c1ncc(-c2cc(F)c3c(c2)OC(c2ccc(F)s2)n2c-3cc3cc(-c4cnc([C@@H]5CCCN5C(=O)[C@@H](NC(=O)OC)C(C)C)[nH]4)ccc32)[nH]1)C(C)C (single isomer, unassigned) [Compound 13] | 2.1 nM | 3.79 nM | 0.0023 nM | – | – | – | IC50 ([2]; Hepatitis C virus, replicon 1A): 0.0019 nM |
| COC(=O)NC(C(=O)N1CCC[C@H]1c1ncc(-c2ccc3c(c2)cc2n3C(c3ccc(CC4CC4)s3)Oc3cc(-c4cnc([C@@H]5CCCN5C(=O)[C@@H](NC(=O)OC)C(C)C)[nH]4)cc(F)c3-2)[nH]1)C1CCOC(C)(C)C1 (single isomer, unassigned) [Compound 407] | – | – | – | 0.0017 nM | – | – | IC50 [1, 6]: 0.258 nM; IC50 [3, 7]: 0.26 nM; IC50 [4, 8]: 0.0019 nM |
| CCc1ccc(C2Oc3cc(-c4cnc([C@@H]5CCCN5C(=O)C(NC(=O)OC)C5CCOC(C)(C)C5)[nH]4)cc(F)c3-c3cc4cc(-c5cnc([C@@H]6CCCN6C(=O)C(NC(=O)OC)C6CCOC(C)(C)C6)[nH]5)ccc4n32)s1 (single isomer, unassigned) [Compound 291] | 0.28 nM | 0.028 nM | 0.0023 nM | – | 0.0024 nM | – | – |
| COC(=O)NC(C(=O)N1CCC[C@H]1c1ncc(-c2ccc3c(c2)cc2n3C(c3ccc(C4CC4)s3)Oc3cc(-c4cnc([C@@H]5CCCN5C(=O)[C@@H](NC(=O)OC)C(C)C)[nH]4)cc(F)c3-2)[nH]1)C(C)(C)F (single isomer, unassigned) [Compound 77] | 0.24 nM | 0.41 nM | – | – | 0.0018 nM | – | IC50 ([4]; replicon 1B): 0.0029 nM |
| CCc1ccc(C2Oc3cc(-c4c[nH]c([C@@H]5CCCN5C(=O)[C@@H](NC(=O)OC)C(C)C)n4)ccc3-c3cc4c(F)c(-c5c[nH]c([C@@H]6CCCN6C(=O)C(NC(=O)OC)C6C[C@@H](C)O[C@@H](C)C6)n5)ccc4n32)s1 (single isomer, unassigned) [Compound 361] | 0.138 nM | 0.0389 nM | 0.0035 nM | – | 0.0036 nM | – | – |
| COC(=O)N[C@H](C(=O)N1CCC[C@H]1c1ncc(-c2cc(F)c3c(c2)OC(c2ccc(F)s2)n2c-3cc3cc(-c4cnc([C@@H]5CCCN5C(=O)[C@@H](NC(=O)OC)C(C)C)[nH]4)ccc32)[nH]1)C(C)C (single isomer, unassigned) [Compound 14] | 0.059 nM | 0.23 nM | – | – | 0.002 nM | – | IC50 ([4]; replicon 1B): 0.0024 nM |
| COC(=O)NC(C(=O)N1CCC[C@H]1c1ncc(-c2cc(F)c3c(c2)OC(c2ccc(C4CC4)s2)n2c-3cc3cc(-c4cnc([C@@H]5CCCN5C(=O)[C@@H](NC(=O)OC)C5CCOCC5)[nH]4)ccc32)[nH]1)C(C)(C)F (some centres unmarked) [Compound 170] | 0.056 nM | 0.05 nM | – | – | 0.001 nM | – | IC50 ([4]; replicon 1B): 0.0033 nM |
| COC(=O)N[C@H](C(=O)N1CCC[C@H]1c1ncc(-c2cc(F)c3c(c2)OC(c2ccc(C(C)(C)O)s2)n2c-3cc3cc(-c4cnc([C@@H]5CCCN5C(=O)[C@@H](NC(=O)OC)C(C)C)[nH]4)ccc32)[nH]1)C(C)C (single isomer, unassigned) [Compound 83] | 0.42 nM | 0.8 nM | 0.0031 nM | – | – | – | IC50 ([2]; Hepatitis C virus, replicon 1A): 0.0032 nM |
| COC(=O)N[C@H](C(=O)N1C2CC2C[C@H]1c1ncc(-c2cc(F)c3c(c2)OC(c2ccc(C4CC4)s2)n2c-3cc3cc(-c4cnc([C@@H]5CCCN5C(=O)[C@@H](NC(=O)OC)C5C[C@@H](C)O[C@@H](C)C5)[nH]4)ccc32)[nH]1)C(C)C (single isomer, unassigned) [Compound 558] | – | – | – | 0.0535 nM | – | 0.0358 nM | IC50 [1, 6]: 0.362 nM; IC50 [3, 7]: 1.22 nM |
| COC(=O)N[C@H](C(=O)N1CCC[C@H]1c1ncc(-c2cc(F)c3c(c2)OC(c2ccc(C4(C)CC4)s2)n2c-3cc3cc(-c4cnc([C@@H]5CCCN5C(=O)[C@@H](NC(=O)OC)C(C)C)[nH]4)ccc32)[nH]1)C(C)C (single isomer, unassigned) [Compound 835] | – | – | – | 0.0035 nM | – | 0.0014 nM | IC50 [1, 9]: 0.943 nM; IC50 [3, 10]: 1.31 nM |
| COC(=O)N[C@H](C(=O)N1C[C@H](F)C[C@H]1c1cnc(-c2ccc3c(c2)cc2n3C(c3cc4ccccc4s3)Oc3cc(-c4cnc([C@@H]5C[C@@H](F)CN5C(=O)[C@@H](NC(=O)OC)C(C)C)[nH]4)ccc3-2)[nH]1)C(C)C (single isomer, unassigned) [Compound 806] | – | – | – | 0.041 nM | – | 0.009 nM | IC50 [1, 6]: 0.023 nM; IC50 [3, 7]: 42.9 nM |
| COC(=O)NC(C(=O)N1CCC[C@H]1c1ncc(-c2ccc3c(c2)cc2n3C(c3ccc(CC4CC4)s3)Oc3cc(-c4cnc([C@@H]5CCCN5C(=O)[C@@H](NC(=O)OC)C(C)C)[nH]4)cc(F)c3-2)[nH]1)C1CCOC(C)(C)C1 (single isomer, unassigned) [Compound 409] | – | – | – | 0.0017 nM | – | 0.0025 nM | IC50 [1, 6]: 0.746 nM; IC50 [3, 7]: 0.181 nM |
| COC(=O)N[C@H](C(=O)N1CCC[C@H]1c1ncc(-c2ccc3c(c2)OC(c2ccc(C4CC4)s2)n2c-3c(F)c3cc(-c4cnc([C@@H]5CCCN5C(=O)[C@@H](NC(=O)OC)C(C)C)[nH]4)ccc32)[nH]1)C(C)C (single isomer, unassigned) [Compound 606] | – | – | – | 0.0026 nM | – | 0.0032 nM | IC50 [1, 6]: 0.161 nM; IC50 [3, 7]: 0.286 nM |
| COC(=O)N[C@H](C(=O)N1CCC[C@H]1c1ncc(-c2ccc3c(c2)OC(c2ccc(C4CC4)s2)n2c-3cc3cc(-c4cnc([C@@H]5CCCN5C(=O)[C@@H](NC(=O)OC)C(C)C)[nH]4)ccc32)[nH]1)C(C)C (single isomer, unassigned) [Compound 704] | – | – | – | 0.0029 nM | – | – | IC50 [1, 6]: 0.45 nM; IC50 [3, 7]: 1.07 nM; IC50 [4, 8]: 0.0029 nM |
| COC(=O)N[C@H](C(=O)N1CCC[C@H]1c1ncc(-c2cc(F)c3c(c2)OC(c2cc4c(s2)CCC4)n2c-3cc3cc(-c4cnc([C@@H]5CCCN5C(=O)[C@@H](NC(=O)OC)C(C)C)[nH]4)ccc32)[nH]1)C(C)C (single isomer, unassigned) [Compound 27] | – | – | 0.0014 nM | – | – | – | IC50 ([1]; Hepatitis C virus, read-out: 1A Y93H IC50 (nM), replicon 1AY93H): 0.65 nM; IC50 ([2]; Hepatitis C virus, replicon 1A): 0.0016 nM; IC50 ([3]; Hepatitis C virus, read-out: 2B IC50 (nM), replicon 2B): 1.49 nM |
| CCc1c2n(c3ccc(-c4cnc([C@@H]5CCCN5C(=O)[C@@H](NC(=O)OC)C(C)C)[nH]4)cc13)C(c1ccc(Cl)s1)Oc1cc(-c3cnc([C@@H]4CCCN4C(=O)[C@@H](NC(=O)OC)C(C)C)[nH]3)cc(F)c1-2 (some centres unmarked) [Compound 837] | – | – | – | – | – | – | IC50 ([1]; Hepatitis C virus, read-out: 1A Y93H IC50, HCV replicon 1A Y93H): 1.52 nM; IC50 [2, 11]: 0.0025 nM; IC50 [4, 8]: 0.0019 nM |
| CCOC(C)[C@H](NC(=O)OC)C(=O)N1CCC[C@H]1c1ncc(-c2cc(F)c3c(c2)OC(c2cc(C)c(C)s2)n2c-3cc3cc(-c4cnc([C@@H]5CCCN5C(=O)[C@@H](NC(=O)OC)C(C)C)[nH]4)ccc32)[nH]1 (single isomer, unassigned) [Compound 79] | 0.14 nM | 0.32 nM | 0.0034 nM | – | – | – | IC50 ([2]; Hepatitis C virus, replicon 1A): 0.0021 nM |
| COC(=O)N[C@H](C(=O)N1CCC[C@H]1c1ncc(-c2cc(F)c3c(c2)OC(c2ccc(C4CC4)s2)n2c-3c(C)c3cc(-c4cnc([C@@H]5CCCN5C(=O)[C@@H](NC(=O)OC)C(C)C)[nH]4)ccc32)[nH]1)C(C)C (single isomer, unassigned) [Compound 842] | – | – | – | 0.0066 nM | – | 0.0014 nM | – |
| CCc1c2n(c3ccc(-c4cnc(C5CCCN5C(=O)C(NC(=O)OC)C(C)C)[nH]4)cc13)C(c1ccc(C3CC3)s1)Oc1cc(-c3cnc(C4CCCN4C(=O)C(NC(=O)OC)C(C)C)[nH]3)cc(F)c1-2 (single isomer, unassigned) [Compound 839] | – | – | – | – | – | 0.0023 nM | IC50 [1, 9]: 0.865 nM; IC50 [3, 10]: 0.971 nM |
| CCc1ccc(C2Oc3cc(-c4cnc([C@@H]5CCCN5C(=O)[C@@H](NC(=O)OC)C(C)C)[nH]4)cc(F)c3-c3cc4cc(-c5cnc([C@@H]6CCCN6C(=O)C(NC(=O)OC)C6C[C@@H](C)O[C@@H](C)C6)[nH]5)ccc4n32)s1 (single isomer, unassigned) [Compound 143] | – | – | 0.0059 nM | – | 0.111 nM | – | – |
| COC(=O)NC(C(=O)N1CCC[C@H]1c1ncc(-c2ccc3c(c2)cc2n3C(c3ccc(C4CC4)s3)Oc3cc(-c4cnc([C@@H]5CCCN5C(=O)[C@@H](NC(=O)OC)C(C)C)[nH]4)cc(F)c3-2)[nH]1)C1CCOC(C)(C)C1 (single isomer, unassigned) [Compound 225] | – | 13.7 nM | 0.0102 nM | – | 0.0477 nM | – | – |
| COC(=O)N[C@H](C(=O)N1CCC[C@H]1c1ncc(-c2cc3c4c(c2)OC(c2ccc(Cl)s2)n2c-4c(c4cc(-c5cnc([C@@H]6CCCN6C(=O)[C@@H](NC(=O)OC)C(C)C)[nH]5)ccc42)CC3)[nH]1)C(C)C (some centres unmarked) [Compound 834] | – | – | – | – | – | – | IC50 [2, 11]: 0.0842 nM; IC50 ([3]; Hepatitis C virus, read-out: 2B IC50, HCV replicon 2B): 16.7 nM; IC50 [4, 8]: 0.0488 nM |
